Data reported in patent publication US20050059641A1, “Compositions and methods for treating and preventing cancer using analogs of vitamin D” (Aphios Corporation, priority 2003, published 2005).

Tests used:
[1] = test system: keratinocytes (primary cells); assay: 3H-thymidine incorporation assay, keratinocytes; format: cell-based, human; settings: 10^−6M
Excerpt: (§1) It is well known that secretory epithelial cells are the main sites for the development of cancers of the breast, prostate and various other organs.
(§2) In a study, investigators compared the growth-inhibitory effects of 25-OH-D3-3-BE and 1,25(OH)2D3 in several VDR-positive epithelial cells, e.g. keratinocytes (primary skin cells), MCF-7 cells (breast cancer cells), hormone-sensitive LNCaP and hormone-refractory PC3 cells (prostate cancer cells), and PZ-HPV-7 (papillovirus immortalized normal prostate cells) by using ^3H-thymidine incorporation assays (FIGS. 14-19).

[2] = test system: MCF-7 cells (breast cancer cells); assay: 3H-thymidine incorporation assay, MCF-7; format: cell-based; settings: 10^−6M
Excerpt: as §1
It is well-established that the biological properties of 1,25(OH)2D3 and its analogs are mediated by their interaction with VDR.
as §2

[3] = test system: LNCaP cells (prostate cancer cells); assay: 3H-thymidine incorporation assay, LNCaP; format: cell-based, human; settings: 10^−6M
Experimental: (§3) The inventors further studied the effect of 1,25(OH)2D3-3-BE on LNCAP cells (most closely resembling human hormone-sensitive prostate cancer) and PZ-HPV-7 cells (immortalized normal prostate cells). The cells were treated with ethanol or 10^−6M of either 1,25(OH)2D3 or 1,25(OH)2D3-3-BE for 16 hours and the effect on proliferation was determined by ^3H-thymidine incorporation assays as described earlier. The viable cell count was determined by Methylene blue assay. The Methylene blue assay is a simple colorimetric method that is widely used to determine the viable cell count.
The inventors studied dose-dependency of antiproliferation and cytotoxicity by 1,25(OH)2D3 or 1,25(OH)2D3-3-BE in LNCaP cells. The cells were treated with 10^−8-10^−6M of either 1,25(OH)2D3 or 1,25(OH)2D3-3-BE or ethanol (used as a control). The effect on proliferation and viable cell count were determined by using ^3H-thymidine incorporation and Methylene blue assay respectively. […]
as §2

[4] = test system: PC3 cells (prostate cancer cells); assay: 3H-thymidine incorporation assay, PC3; format: cell-based, human; settings: PC-3 cells, 10^−6M
Excerpt: as §1, §2
Since 25-OH-D3-3-BE contains an ester bond, its hydrolysis by esterases in growing cells would produce equimolar amounts of bromoacetic acid (BAA) and 25-OH-D3 (see, FIG. 21).
Furthermore, fetal calf serum (FCS) contains many proteins, including vitamin D-binding protein, which potentially could absorb 25-OH-D3-3-BE before it reacts with VDR. Typically, the assays described herein were carried out in a media containing 10% FCS (after serum-depriving the cells for 15 hours).

[5] = test system: PZ-HPV-7 (papillovirus immortalized normal prostate cells); assay: 3H-thymidine incorporation assay, PZ-HPV-7; format: cell-based; settings: PZ-HPV-7 cells, 10^−6M
Experimental: as §1, §3, §2

[6] = in vivo toxicity study in CD-1 mice; parameters: Serum Calcium on day 12: unit not given here; settings: for Body Weight on Day 12 / Serum Calcium on day 12 / Body Weight On Day 0: CD-1 mice; for Body Weight On Day 0: beginning of the experiment
Excerpt: Investigators completed an in vivo study to determine the toxicity of 25-OH-D3-3-BE at various doses in CD-1 mice. The animals (average weight ˜30 gms) were maintained with normal chow and water ad libitum. […] At the end of the experiment the animals were lightly anesthetized and blood collected after decapitation for serum calcium-analysis. […] Frequency of administration, body weights at the beginning and at the end of the experiment and serum calcium values are given in the accompanying Table 1.

[7] = test system: prostate tumor induced with PC-3 cells; assay: in vivo effect in mice bearing prostate tumor induced with PC-3 cells; parameters: species or system male SCID mice; settings: SCID mice with PC-3 tumor
Experimental: Sesame oil solutions (200 μl) of either 25-OH-D3 (10 μg) or 25-OH-D3-3-BE (13.2 μg, molar equivalent of 25-OH-D3) or vehicle were administered i.p. in alternate days for two weeks. […] At the end, mice were anesthetized, tumors were removed, and blood was collected. Tumors were embedded in paraffin and sections were made.

[8] = test system: PC-3 cells; assay: DNA-fragmentation analysis; format: cell-based, human; settings: 250 nM, 10 hours
Experimental: (a) DNA-fragmentation analysis: PC-3 cells (2×10^6) were treated with 250 nM of 1,25(OH)2D3, 25-OH-D3 or 25-OH-D3-3-BE for 10 hours. The cells were harvested and lysed in 0.5 ml lysis buffer (20 mM Tris-HCl, 10 mM EDTA, 0.5% Triton X-100, pH 8.0), and DNA was extracted using phenol-chloroform procedure. The DNA was resuspended in 0.1 ml of 20 mM Tris-HCl, pH 8 and treated with Rnase, followed by electrophoresis on 1.2% agarose gel in TAE. The DNA was visualized under UV light after ethidinium bromide staining.

[9] = test system: caspase-3; assay: Caspase Colorimetric assay, caspase-3; format: cell-based; settings: PC3 cells, 10 nM, 14 hours
Experimental: (§4) Caspase-activity: There are several markers for apoptosis, and caspase activity is one of them; and their levels normally go up under apoptotic conditions. Investigators determined the levels of caspases 3, 8 and 9 by Caspase Colorimetric assay kits from R&D Systems (Minneapolis, Minn.) and used according to the manufacturer's instructions. Briefly, PC3 cells (1×10^6) were treated with 10 nM of 1,25(OH)2D3, 25-OH-D3 or 25-OH-D3-3-BE for 14 hours in culture medium (DMEM, 10% FBS and antibiotics). The cells were collected by centrifugation at 1000 RPM for 5 min. The cell pellet was lysed with lysis buffer, and the lysate was incubated on ice for 10 min. and centrifuged for 10,000 RPM for 5 min. Protein was estimated using Bradford protein estimation kit (BioRad). The enzymatic reactions were carried out in 96 well plate. For each reaction 100 μg lysate protein in 50 μl was incubated with 50 μl of 2×reaction buffer and 5 μl of caspase-3 or caspase-8 or caspase-9 calorimetric substrate for 2 h at 37° C. The absorbance was determined at 405 nm.

[10] = test system: caspase-8; assay: Caspase Colorimetric assay, caspase-8; format: cell-based; settings: PC3 cells, 10 nM, 14 hours
Experimental: as §4

[11] = test system: caspase-9; assay: Caspase Colorimetric assay, caspase-9; format: cell-based; settings: PC3 cells, 10 nM, 14 hours
Experimental: as §4

C=C1CCC(OC(=O)CBr)CC1=CC=C1CCCC2(C)C1CCC2C(C)CCCC(C)(C)O (stereo not drawn) [25-OH-D3-3-BE, 25-hydroxyvitamin D3-3-bromoacetate]
growth-inhibitory effect (3H-thymidine incorporation) [1]: antiproliferative | lethal to the cells [1]: not | growth-inhibitory effect (3H-thymidine incorporation) [2]: antiproliferative | lethal to the cells [2]: not | growth-inhibitory effect (3H-thymidine incorporation) [3]: stronger antiproliferative agent than 1,25(OH)2D3 | lethal to the cells [3]: lethal | growth-inhibitory effect (3H-thymidine incorporation) [4]: stronger antiproliferative agent than 1,25(OH)2D3 | lethal to the cells [4]: lethal | growth-inhibitory effect (3H-thymidine incorporation) [5]: antiproliferative | lethal to the cells [5]: not | Body Weight on Day 12 ([6]; 3.3 μg/kg intraperitoneally): 30.36 ± 1 grams | Serum Calcium on day 12 ([6]; 3.3 μg/kg intraperitoneally): 9.1 ± 0.2 | Body Weight On Day 0 ([6]; 3.3 μg/kg intraperitoneally): 29 ± 0.6 grams | Body Weight on Day 12 ([6]; 33 μg/kg intraperitoneally): 32.9 ± 1.4 grams | Serum Calcium on day 12 ([6]; 33 μg/kg intraperitoneally): 9.4 ± 0.2 | Body Weight On Day 0 ([6]; 33 μg/kg intraperitoneally): 31 ± 0.83 grams | Body Weight on Day 12 ([6]; 166.7 μg/kg intraperitoneally): 30.7 ± 1 grams | Serum Calcium on day 12 ([6]; 166.7 μg/kg intraperitoneally): 9.7 ± 0.1 | Body Weight On Day 0 ([6]; 166.7 μg/kg intraperitoneally): 30.55 ± 0.7 grams | toxicity in vivo ([6]; mouse, dose as high as 166.7 μg/Kg): non-toxic | loss of body weight ([7]; 13.2 μg i.p. in alternate days for two weeks): no significant loss of body weight | Hematoxylin-Eosin staining of the tumor sections ([7]; 13.2 μg i.p. in alternate days for two weeks, versus vehicle (sesame oil)): considerably less cellular | condition of the mice at the end of treatment ([7]; 25-OH-D3 10 μg or 25-OH-D3-3-BE 13.2 μg (molar equivalent) i.p. in alternate days for two weeks): viable | DNA fragmentation (apoptosis) [8]: DNA fragmentation was observed | Caspase-3 induction [9]: induced | Caspase-8 induction [10]: induced | Caspase-9 induction [11]: induced
